Consider 88 compounds from PubChem BioAssay AID651672 (The Scripps Research Institute Molecular Screening Center, 2012).

Molecules are shown by their SMILES. Active and inactive are the calls of the source. The rule behind the calls is not given here. Bounds are passed on as bounds.

For the test, the target named is Perilipin-1 (Homo sapiens) (UniProt O60240). Put plainly: inhibitors of ABHD5-PLIN1 binding, dose response, counter-screen for ABHD5-PLIN5 interaction inhibitor project, biochemical, luminescence (AID 651672).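 Note: split Gaussia luciferase complementation between ABHD5 and PLIN1 fusion fragments.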 In general terms: Counterscreens check selectivity or assay interference.
Perilipin-1 (Homo sapiens), sequence (O60240 whole entry, looked up, the tested form may be a part): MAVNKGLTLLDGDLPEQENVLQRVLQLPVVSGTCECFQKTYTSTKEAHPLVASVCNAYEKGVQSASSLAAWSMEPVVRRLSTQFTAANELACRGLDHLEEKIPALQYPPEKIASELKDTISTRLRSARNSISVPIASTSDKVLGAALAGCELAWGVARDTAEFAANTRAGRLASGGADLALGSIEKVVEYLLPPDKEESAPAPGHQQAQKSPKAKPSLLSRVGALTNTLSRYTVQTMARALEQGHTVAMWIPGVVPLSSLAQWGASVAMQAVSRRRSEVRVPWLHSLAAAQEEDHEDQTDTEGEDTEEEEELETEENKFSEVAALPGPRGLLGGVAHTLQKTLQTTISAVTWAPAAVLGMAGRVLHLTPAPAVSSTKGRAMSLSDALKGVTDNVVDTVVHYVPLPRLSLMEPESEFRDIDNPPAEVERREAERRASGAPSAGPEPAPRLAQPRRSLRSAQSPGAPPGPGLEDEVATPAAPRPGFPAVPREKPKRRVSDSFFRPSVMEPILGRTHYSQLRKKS
With `COc1ccc(/C=C/C(=O)c2cc(F)ccc2OC(=O)c2ccc(OC)c(OC)c2)cc1OC`, the IC50 (as a rule, the midpoint of a concentration-inhibition curve) was 2.44 µM.

As to `CC(C)(C)NC(=O)C(c1cccc2ccccc12)n1c(=O)c(-c2ccco2)nc2ccccc21` (stereo not drawn), the IC50 is 2.04 µM.

Turning to `C=C[C@]1(C)C[C@@H](OC(=O)CSCCN(CC)CC)[C@]2(C)C(C)CC[C@]3(CCC(=O)[C@H]32)[C@@H](C)[C@@H]1O` (stereo partly drawn), the IC50 result was “inactive”.

On to `C#CCN(C[C@@H]1[C@@H](OC(=O)NCC2CCCCC2)[C@@H](OC(=O)NCC2CCCCC2)Cn2c(=O)ccc(=O)n21)S(=O)(=O)c1ccc(C)cc1`, for which the IC50 was 4.76 µM.

As for `CC(C)(C)NC(=O)C(c1ccc(-c2ccccc2)cc1)n1c(=O)c(-c2ccco2)nc2ccccc21` (stereo not drawn), the IC50 was 1.67 µM.

Regarding `Cc1ccc2c(CC(=O)N3CCN(S(=O)(=O)c4ccc5c(c4)OCCO5)CC3)coc2c1`, the IC50 is 5.11 µM.

As for `O=CC1=C(c2ccccc2)Oc2ccccc2O1`, the concentration for half-maximal inhibition (IC50) is 2.57 µM.

For `O=C(/C=C/Sc1ccccc1)c1ccc(Cl)cc1`, the IC50 was 3.81 µM.

On to `CCc1nnc(NC(=O)c2nc(S(=O)(=O)Cc3cccc(C)c3)ncc2Cl)s1`, for which the IC50 is 3.29 µM.

Consider `COCCNC(=O)/C(C#N)=C/c1cccc(/C=C(\C#N)C(=O)NCCOC)c1`, for which the IC50 is 0.804 µM.

In the case of `CCC(C(=O)OCCN(CC)CC)c1ccccc1` (stereo not drawn), the IC50 is 2.53 µM.

Turning to `CC(c1nc2ccccc2[nH]1)n1c(=O)c(-c2ccco2)nc2ccccc21` (stereo not drawn), the IC50 is 3.37 µM.

As to `O=C(/C=C/c1ccc2c(c1)OCCCO2)c1ccccc1O`, the IC50 is 5.52 µM.

As for `CC(C)c1ccc(N2C=Nc3ccc(C(C)C)cc3C2)cc1`, the IC50 was 7.98 µM.

Consider `CCCCCNC(=O)C(c1ccccc1F)n1c(=O)c(-c2ccco2)nc2ccccc21` (stereo not drawn), for which the IC50 is 1.09 µM.

As for `Cc1cc(C)c2nc(NNC(=O)c3ccc(S(=O)(=O)N4CCCC(C)C4)cc3)sc2c1` (stereo not drawn), the IC50 is 3.01 µM.

With `COc1ccccc1C=CC(=O)C=Cc1ccccc1OC`, the IC50 is 5.34 µM.

As for `CC(C)(C)NC(=O)C(c1ccccc1)n1c(=O)c(-c2ccco2)nc2ccccc21` (stereo not drawn), the IC50 is 2.04 µM.

Regarding `O=S(=O)(NC1=NCCCCC1)c1ccc2sc(NS(=O)(=O)c3ccc4ccccc4c3)nc2c1`, the IC50 result was “inactive”.

As to `CCN1C/C(=C/c2ccc(OC)c(O)c2)C(=O)/C(=C/c2ccc(OC)c(O)c2)C1`, the IC50 was 7.54 µM.

For the compound `O=C(NCc1ccccc1)C(C1CC1)n1c(=O)c(-c2ccco2)nc2ccccc21` (stereo not drawn), the IC50 is 6.05 µM.

`CCN(CC)CCN(CC(=O)Nc1c(C)cc(C)cc1C)C(=O)c1ccccc1`: the IC50 result was “inactive”.

For `COc1cccc2sc(N(CCCN(C)C)C(=O)COc3ccc(Cl)cc3)nc12`, the IC50 result was “inactive”.

Take `CN(C)CCN(Cc1ccco1)c1ccccn1`: the IC50 result was “inactive”.

Take `Cc1cc(C)c(C(CC(=O)c2cccs2)C(C#N)C#N)c(C)c1` (stereo not drawn): the IC50 was 6.74 µM.

As for `Cc1cccc(C)c1NC(=O)C(c1ccccc1)n1c(=O)c(-c2ccco2)nc2ccccc21` (stereo not drawn), the IC50 is 3.37 µM.

Regarding `CCCCCNC(=O)C(c1ccc(OC)cc1)n1c(=O)c(-c2ccco2)nc2ccccc21` (stereo not drawn), the IC50 is 1.41 µM.

As for `CC1=CC(C)(C)Nc2ccc(OC(=O)CN3C(=O)c4cccc5cccc(c45)C3=O)cc21`, the IC50 is 6.42 µM.

For `O=C(/C=C/c1ccc(NC(=O)c2ccccc2-c2ccccc2C(=O)O)cc1)c1ccccc1`, the IC50 is 8.03 µM.

For the compound `CC1(C)C2CCC(CN=C(N)CSS(=O)(=O)O)C1C2` (stereo not drawn), the IC50 was 4.29 µM.

Regarding `CSC(=Nc1ccccc1)N=C(SCc1ccccc1)N(C)C`, the IC50 is 1.18 µM.

With `Cc1cc(C)c(NC(=O)CN2CCN3CCCC3C2)c(C)c1` (stereo not drawn), the IC50 result was “inactive”.

Take `CS(=O)(=O)c1ccc(C(=O)NCCN2C(=O)S/C(=C\c3cccnc3)C2=O)cc1[N+](=O)[O-]`: the IC50 is 5.14 µM.

`C=C1C(=O)O[C@H]2C[C@H]1[C@@H](OC(C)=O)C/C(C)=C/CC/C(C)=C\CC[C@]2(C)O`: the IC50 was 1.87 µM.

As for `CCCCCNC(=O)C(c1ccc(C#N)cc1)n1c(=O)c(-c2ccco2)nc2ccccc21` (stereo not drawn), the IC50 was 2.98 µM.

As to `Cc1cccc(NC(=O)CSc2nnc(-c3ccco3)c(-c3ccco3)n2)c1`, the IC50 was 1.92 µM.

Take `CC(=O)OCC1=C(C(=O)O)N2C(=O)C(NC(=O)CCn3nc(C(F)(F)F)c(Br)c3C3CC3)C2SC1` (stereo not drawn): the IC50 is 8.15 µM.

For `Cc1ccc(CS(=O)(=O)c2ncc(Cl)c(C(=O)Nc3nnc(C(C)C)s3)n2)cc1`, the IC50 was 1.71 µM.

On to `CN(C)CCCN(C(=O)CCc1ccccc1)c1nc2ccc(Br)cc2s1`, for which the IC50 was 8.53 µM.

`COc1ccccc1/C=C/C(=O)c1ccccc1`: the IC50 was 6.05 µM.

Turning to `COc1cc(C)c2sc3ccccc3c(=O)c2c1NCCN(C)C`, the IC50 is 6.3 µM.

For the compound `N#Cc1ccc(C(C(=O)NCc2ccccc2)n2c(=O)c(-c3ccco3)nc3ccccc32)cc1` (stereo not drawn), the IC50 was 1.7 µM.

Take `O=C1NC(=O)N(Cc2ccccc2)C(=O)/C1=C\C=C\c1ccco1`: the IC50 was 1.82 µM.

With `O=[N+]([O-])/C=C/c1cn(Cc2ccc(F)cc2)c2ccccc12`, the IC50 is 7.46 µM.

Turning to `Cc1cccc(C)c1NC(=O)C(c1ccncc1)n1c(=O)c(-c2ccco2)nc2ccccc21` (stereo not drawn), the IC50 was 7.15 µM.

As for `O=C(NC1CCCCC1)C(c1cc2ccccc2o1)n1c(=O)c(-c2ccco2)nc2ccccc21` (stereo not drawn), the IC50 was 1.29 µM.

In the case of `CCc1nnc(NC(=O)c2nc(S(=O)(=O)Cc3ccccc3)ncc2Cl)s1`, the IC50 was 4.25 µM.

On to `COc1ccc(NC(=O)c2cc3ccccc3cc2O)cc1`, for which the IC50 entry is “inactive”.

In the case of `Cc1ccc(NC(=O)CSc2nnc(-c3ccco3)c(-c3ccco3)n2)cc1`, the IC50 is 2.66 µM.

With `CC(C)c1nnc(NC(=O)c2nc(S(=O)(=O)Cc3ccc(F)cc3)ncc2Cl)s1`, the IC50 is 2.83 µM.

With `Cc1ccc2nc3cc([N+](=O)[O-])cc([N+](=O)[O-])c3cc2c1`, the IC50 was 0.801 µM.

Consider `Cc1ccc2sc(N(CCCN(C)C)C(=O)CN3C(=O)c4ccccc4C3=O)nc2c1C`, for which the IC50 entry was “inactive”.

On to `O=C(/C(=C/c1ccccc1)n1cncn1)c1ccc(Cl)cc1Cl`, for which the IC50 is 2.3 µM.

For the compound `O=C(NC1CCCCC1)C(c1cccc2ccccc12)n1c(=O)c(-c2ccco2)nc2ccccc21` (stereo not drawn), the IC50 was 1.22 µM.

As to `COc1ccccc1-c1cc(C(=O)NC2CCN(C)CC2)c2ccc(Cl)c(C)c2n1`, the IC50 entry was “inactive”.

For `CCSc1nnc(NC(=O)c2nc(S(=O)(=O)Cc3ccc(F)cc3)ncc2Cl)s1`, the IC50 was 2.68 µM.

Consider `COc1ccc(/C=C\C(=O)CC(O)(c2ccccc2)C(F)(F)F)cc1` (stereo not drawn), for which the IC50 was 2.68 µM.

Take `N#Cc1ccc(C(C(=O)Nc2ccc3c(c2)OCCO3)n2c(=O)c(-c3ccco3)nc3ccccc32)cc1` (stereo not drawn): the IC50 was 7.22 µM.

Consider `Cc1cccc(C)c1NC(=O)C(c1ccnc2ccccc12)n1c(=O)c(-c2ccco2)nc2ccccc21` (stereo not drawn), for which the IC50 is 3.32 µM.

As to `O=C(NC1CCCCC1)C(C1CC1)n1c(=O)c(-c2ccco2)nc2ccccc21` (stereo not drawn), the IC50 is 3.11 µM.

Take `COc1cc(/C=C/C(=O)c2ccc(Cl)s2)cc(OC)c1O`: the IC50 was 4.59 µM.

In the case of `C#CCOCCOCCOCCNc1nc(N2CCN(C(=O)CCCCCCCCCCNC(=O)[C@@H](CCSC)n3cc(CCO)nn3)CC2)nc(N2CCN(C(=O)CCCCCCCCCCNC(=O)[C@@H]([C@H](C)O)n3cc(C)nn3)CC2)n1`, the IC50 result was “inactive”.

For the compound `O=C(CF)N(O)c1ccc(C=Cc2ccccc2)cc1`, the IC50 is > 13.3 µM (inactive).

For the compound `CCSc1ccc2c(c1)N(CCCN1CCN(C)CC1)c1ccccc1S2`, the IC50 was 6.35 µM.

For `COc1ccc(C(C(=O)NC2CCCCC2)n2c(=O)c(-c3ccco3)nc3ccccc32)cc1` (stereo not drawn), the IC50 was 1.27 µM.

Take `C#CCN(C[C@@H]1[C@@H](OC(=O)Nc2cccs2)[C@@H](OC(=O)Nc2cccs2)Cn2c(=O)ccc(=O)n21)S(=O)(=O)c1ccc(C)cc1`: the half-maximal inhibitory concentration (IC50) was 2.33 µM.

With `O=C(/C=C/c1ccccc1)CC(O)(c1ccccc1)C(F)(F)C(F)F` (stereo not drawn), the IC50 is 0.821 µM.

As for `O=C(Nc1ccc(Cl)cc1)/C(=C/c1cccc(O)c1)c1nc2ccccc2s1`, the IC50 was 1.68 µM.

In the case of `CC(C)(C)NC(=O)C(c1ccccc1F)n1c(=O)c(-c2ccco2)nc2ccccc21` (stereo not drawn), the IC50 was 2.27 µM.

Consider `CSc1nnc(NC(=O)c2nc(S(=O)(=O)Cc3cccc(C)c3)ncc2Cl)s1`, for which the IC50 was 2.7 µM.

In the case of `O=c1nc(/C=C/c2ccc(Cl)cc2Cl)cc(C(F)(F)F)[nH]1`, the IC50 was 2.94 µM.

In the case of `CC(=O)Oc1c(Br)cc(N(C(C)=O)S(=O)(=O)c2ccccc2)c2ccccc12`, the IC50 is 8.8 µM.

On to `Cc1ccc(S(=O)(=O)N2C[C@H]3n4c(=O)ccc(=O)n4C[C@H](OC(=O)Nc4cccs4)[C@@]3(O)C2)cc1`, for which the IC50 was 6.5 µM.

In the case of `Oc1c(C(c2ccccc2)N2CCCCC2)ccc2ccccc12` (stereo not drawn), the IC50 is 1.01 µM.

As to `CC(CCc1ccco1)NC(=O)CCc1nnc2ccc(NCc3ccccc3Cl)nn12` (stereo not drawn), the IC50 was 2.03 µM.

With `O=C(O)CC(O)(CC(=O)O)C(=O)O`, the IC50 is 3.71 µM.

Take `FC(F)(F)c1cccc(NC(=S)N(CCCN2CCCC2)Cc2cccn2Cc2ccc(Cl)cc2)c1`: the IC50 result was “inactive”.

`CC(C)(C)NC(=O)C(c1ccc(C(F)(F)F)cc1)n1c(=O)c(-c2ccco2)nc2ccccc21` (stereo not drawn): the IC50 is 2.69 µM.

As for `COC/C=C/C1=CC2=CC(=O)C(C)(OC(=O)C3CCCC3)C(=O)C2=CO1` (stereo not drawn), the IC50 was 2.45 µM.

For `COC(=O)c1cc(=O)n(-c2ccc(F)cc2)c(=Nc2ccc(F)cc2)s1`, the IC50 is 2.5 µM.

Turning to `CCCCCNC(=O)C(c1cccc2ccccc12)n1c(=O)c(-c2ccco2)nc2ccccc21` (stereo not drawn), the IC50 was 2.01 µM.

Consider `Cc1nc2c(o1)CCc1ccccc1C2N1CCN(C)CC1` (stereo not drawn), for which the IC50 result was “inactive”.

Turning to `COc1ccc(C)c2sc(N(CCN(C)C)C(=O)/C=C/c3cccs3)nc12`, the IC50 result was “inactive”.

Regarding `C#CCN(C[C@@H]1[C@@H](OC(=O)NCCCCCC)[C@@H](OC(=O)NCCCCCC)Cn2c(=O)ccc(=O)n21)S(=O)(=O)c1ccc(C)cc1`, the concentration for half-maximal inhibition (IC50) was 5.99 µM.

Turning to `CCCCn1c(SCC(=O)NCc2ccco2)nnc1-c1ccoc1C`, the IC50 is 4.71 µM.

Consider `Cc1ccc(C)c(/C=C/C(=O)c2ccccc(=O)c2O)c1`, for which the IC50 is 5.58 µM.

For `CCCc1nnc(NC(=O)c2nc(S(=O)(=O)Cc3cccc(C)c3)ncc2Cl)s1`, the concentration for half-maximal inhibition (IC50) was 2.83 µM.

In the case of `CN(C)CCCNC(=O)c1ccc(-c2nc(-c3ccc(Cl)cc3)cs2)cc1`, the IC50 entry was “inactive”.
